Each structure is given as a SMILES string. Where two headings read alike, the source gives them in different places.

Test [1] has as its system PARG in HeLa cell line. Nature of the test: PARG cell assay (PAR chain immunofluorescence after MMS). Particulars: HeLa cells. The class given is cell-based. The essentials: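 HeLa cells were dosed with compound for 1 h, then given MMS at 50 μg/mL final for a further hour. Cells were methanol-fixed, permeabilised and stained overnight at 4° C with anti-PAR monoclonal antibody. Retained nuclear PAR chains, detected by indirect immunofluorescence, indicate PARG inhibition.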

In test [2] the target is Human Full Length PARG (Homo sapiens (Human), UniProt Q86W56). Nature of the test: PARG enzyme assay (TR-FRET). In kind it is biochemical.
Setting [3] is: MMS treatment, read-out: PARG Cell IC50.
Where [4] appears, read: Homo sapiens, MMS 50 μg/mL, read-out: PARG Cell IC50 Geomean.
Where [5] appears, read: read-out: PARG Biochem IC50 Geomean.
Where [6] appears, read: Homo sapiens, MMS treatment, read-out: PARG Cell IC50.

Sequence of Human Full Length PARG (Q86W56 whole entry): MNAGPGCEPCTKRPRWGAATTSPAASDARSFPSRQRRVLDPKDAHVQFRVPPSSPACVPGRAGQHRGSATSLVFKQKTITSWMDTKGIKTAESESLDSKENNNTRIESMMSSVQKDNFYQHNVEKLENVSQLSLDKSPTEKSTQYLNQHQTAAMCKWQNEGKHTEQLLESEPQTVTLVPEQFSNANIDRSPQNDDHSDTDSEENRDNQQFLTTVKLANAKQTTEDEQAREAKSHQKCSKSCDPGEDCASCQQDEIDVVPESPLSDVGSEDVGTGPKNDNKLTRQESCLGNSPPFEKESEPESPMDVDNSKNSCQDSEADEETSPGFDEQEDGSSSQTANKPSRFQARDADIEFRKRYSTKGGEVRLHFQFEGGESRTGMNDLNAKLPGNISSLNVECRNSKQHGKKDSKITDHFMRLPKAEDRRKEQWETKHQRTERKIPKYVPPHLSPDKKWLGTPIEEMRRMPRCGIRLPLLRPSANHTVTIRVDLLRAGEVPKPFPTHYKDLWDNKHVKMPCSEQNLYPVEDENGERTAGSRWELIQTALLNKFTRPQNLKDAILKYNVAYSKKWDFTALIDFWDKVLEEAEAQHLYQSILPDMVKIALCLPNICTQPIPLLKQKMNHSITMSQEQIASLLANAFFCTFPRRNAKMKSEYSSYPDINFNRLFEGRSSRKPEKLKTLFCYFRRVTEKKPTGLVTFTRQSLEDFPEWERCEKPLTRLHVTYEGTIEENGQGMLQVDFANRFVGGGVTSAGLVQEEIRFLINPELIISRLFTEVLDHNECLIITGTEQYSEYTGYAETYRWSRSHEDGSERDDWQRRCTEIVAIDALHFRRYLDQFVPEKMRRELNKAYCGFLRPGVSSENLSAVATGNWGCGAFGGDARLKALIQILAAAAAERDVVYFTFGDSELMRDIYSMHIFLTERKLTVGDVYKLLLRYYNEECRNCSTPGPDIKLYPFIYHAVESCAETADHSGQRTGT

Regarding `COCCCn1c(=O)n(Cc2cc(C)no2)c(=O)c2cc(S(=O)(=O)NC3(CF)CC3)ccc21` [Example 525, N-[1-(Fluoromethyl)cyclopropyl]-1-(3-methoxypropyl)-3-[(3-methylisoxazol-5-yl)methyl]-2,4-dioxo-quinazoline-6-sulfonamide], the values for the IC50 in test [1] (setting [3]) and in test [2] (read-out: PARG Biochem IC50) were 315 nM and 169 nM, respectively.
For the molecule `Cc1cc(Cn2c(=O)c3cc(S(=O)(=O)NC4(C)CC4)ccc3n(Cc3cnn(C)c3)c2=O)on1` [Example 330], the IC50 was 164 nM in test [1] (setting [4]) and 96 nM in test [2] (setting [5]).
As for `Cn1c(=O)n(Cc2ccnnc2)c(=O)c2cc(S(=O)(=O)NC3(C)CC3)ccc21` [Example 446, 1-Methyl-N-(1-methylcyclopropyl)-2,4-dioxo-3-(pyridazin-4-ylmethyl)quinazoline-6-sulfonamide], the results for the IC50 in test [1] (setting [6]) and in test [2] (read-out: PARG Biochem IC50) were 18900 nM and 13400 nM, respectively.
In the case of `Cc1cc(Cn2c(=O)c3cc(S(=O)(=O)NC4(C)CC4)ccc3n(Cc3cc(C)no3)c2=O)on1` [Example 208], the IC50 is 69 nM in test [1] (setting [4]) and 36 nM in test [2] (setting [5]).
Take `COc1ccc(Cn2c(=O)n(C)c(=O)c3cc(S(=O)(=O)NC4(C)CC4)ccc32)cc1` [Example 61]: the IC50 in test [1] (setting [4]) amounted to 199 nM; in test [2] (setting [5]), 454 nM.
Regarding `Cc1cc(Cn2c(=O)c3cc(S(=O)(=O)NC4(C)CC4)ccc3n(CC(C)(C)C)c2=O)on1` [Example 465, 1-(2,2-Dimethylpropyl)-N-(1-methylcyclopropyl)-3-[(3-methylisoxazol-5-yl)methyl]-2,4-dioxo-quinazoline-6-sulfonamide], the concentration for half-maximal inhibition (IC50) in test [1] (setting [6]) is 188 nM; in test [2] (read-out: PARG Biochem IC50), 283 nM.
As to `Cn1cc(Cn2c(=O)c3cc(S(=O)(=O)NC4(CF)CC4)ccc3n(CCc3ccccn3)c2=O)cn1` [Example 566, N-[1-(Fluoromethyl)cyclopropyl]-3-[(1-methylpyrazol-4-yl)methyl]-2,4-dioxo-1-[2-(2-pyridyl)ethyl]quinazoline-6-sulfonamide], the IC50 in test [1] (setting [3]) was found to be 562 nM; in test [2] (read-out: PARG Biochem IC50), 687 nM.
For `Cc1cc(Cn2c(=O)n(Cc3cnn(C)c3)c(=O)c3cc(S(=O)(=O)NC4(C)CC4)c(F)cc32)on1` [Example 391, 7-Fluoro-N-(1-methylcyclopropyl)-1-[(3-methylisoxazol-5-yl)methyl]-3-[(1-methylpyrazol-4-yl)methyl]-2,4-dioxo-quinazoline-6-sulfonamide], the half-maximal inhibitory concentration (IC50) is 67 nM in test [1] (MMS 50 μg/mL, read-out: PARG Cell IC50 Geomean) and 24 nM in test [2] (setting [5]).
On to `COC1(Cn2c(=O)n(Cc3cc(C)no3)c(=O)c3cc(S(=O)(=O)NC4(C)CC4)ccc32)CCCC1` [Example 471, 1-[(1-Methoxycyclopentyl)methyl]-N-(1-methylcyclopropyl)-3-[(3-methylisoxazol-5-yl)methyl]-2,4-dioxo-quinazoline-6-sulfonamide], for which the IC50 came out at 241 nM in test [1] (setting [6]) and 550 nM in test [2] (read-out: PARG Biochem IC50).
For `Cc1cc(Cn2c(=O)c3cc(S(=O)(=O)NC4(C)CC4)ccc3n(Cc3cnn(C(C)C)c3)c2=O)on1` [Example 473, 1-[(1-Isopropylpyrazol-4-yl)methyl]-N-(1-methylcyclopropyl)-3-[(3-methylisoxazol-5-yl)methyl]-2,4-dioxo-quinazoline-6-sulfonamide], the IC50 came to 144 nM in test [1] (setting [3]) and 196 nM in test [2] (read-out: PARG Biochem IC50).
`Cn1cc(Cn2c(=O)c3cc(S(=O)(=O)NC4(CF)CC4)ccc3n(CC(F)F)c2=O)cn1` [Example 600, 1-(2,2-Difluoroethyl)-N-[1-(fluoromethyl)cyclopropyl]-3-[(1-methylpyrazol-4-yl)methyl]-2,4-dioxo-quinazoline-6-sulfonamide]: the 50% inhibitory concentration (IC50) in test [1] (setting [6]) came out at 109 nM; in test [2] (read-out: PARG Biochem IC50), 127 nM.
Turning to `Cc1cncc(Cn2c(=O)c3cc(S(=O)(=O)NC4(C)CC4)ccc3n(C)c2=O)c1` [Example 418, 1-Methyl-N-(1-methylcyclopropyl)-3-[(5-methyl-3-pyridyl)methyl]-2,4-dioxo-quinazoline-6-sulfonamide], the concentration for half-maximal inhibition (IC50) was 2110 nM in test [1] (setting [6]) and 2270 nM in test [2] (read-out: PARG Biochem IC50).
The matching figures for `CCC(CC)Cn1c(=O)n(Cc2cc(C)no2)c(=O)c2cc(S(=O)(=O)NC3(C)CC3)ccc21` [Example 470, 1-(2-Ethylbutyl)-N-(1-methylcyclopropyl)-3-[(3-methylisoxazol-5-yl)methyl]-2,4-dioxo-quinazoline-6-sulfonamide]: 266 nM and 546 nM.
As to `Cc1cc(Cn2c(=O)c3cc(S(=O)(=O)NC4(C)CC4)ccc3n(CCC(=O)N(C)C)c2=O)on1` [Example 406, N, N-Dimethyl-3-[6-[(1-methylcyclopropyl)sulfamoyl]-3-[(3-methylisoxazol-5-yl)methyl]-2,4-dioxo-quinazolin-1-yl]propanamide], the concentration for half-maximal inhibition (IC50) was determined as 800 nM in test [1] (setting [6]) and 456 nM in test [2] (read-out: PARG Biochem IC50).
In the case of `Cc1cc(Cn2c(=O)c3cc(S(=O)(=O)NC4(C)CC4)ccc3n(Cc3nc(C)no3)c2=O)on1` [Example 252], the concentration for half-maximal inhibition (IC50) was 297 nM in test [1] (setting [4]) and 391 nM in test [2] (setting [5]).
With `Cc1cc(Cn2c(=O)n(Cc3cnn(C)c3)c(=O)c3cc(S(=O)(=O)NC4(CF)CC4)ccc32)n(C)n1` [Example 437, 1-[(2,5-Dimethylpyrazol-3-yl)methyl]-N-[1-(fluoromethyl)cyclopropyl]-3-[(1-methylpyrazol-4-yl)methyl]-2,4-dioxo-quinazoline-6-sulfonamide], the IC50 in test [1] (setting [6]) stood at 165 nM; in test [2] (read-out: PARG Biochem IC50) it was 23 nM.
The matching figures for `Cn1cc(Cn2c(=O)c3cc(S(=O)(=O)NC4(C)CC4)ccc3n(CC(F)(F)F)c2=O)cn1` [Example 621, N-(1-Methylcyclopropyl)-3-[(1-methylpyrazol-4-yl)methyl]-2,4-dioxo-1-(2,2,2-trifluoroethyl)quinazoline-6-sulfonamide]: 135 nM and 257 nM.
For the molecule `Cc1cc(Cn2c(=O)c3cc(S(=O)(=O)NC4(C)CC4)ccc3n(CC3CN(C=O)C3)c2=O)on1` [Example 425, 1-[(1-Formylazetidin-3-yl)methyl]-N-(1-methylcyclopropyl)-3-[(3-methylisoxazol-5-yl)methyl]-2,4-dioxo-quinazoline-6-sulfonamide], the half-maximal inhibitory concentration (IC50) in test [1] (setting [6]) turned out to be 7810 nM; in test [2] (read-out: PARG Biochem IC50), 214 nM.
Take `Cn1cc(Cn2c(=O)c3cc(S(=O)(=O)NC4(C)CC4)c(F)cc3n(C)c2=O)cn1` [Example 385, 7-Fluoro-1-methyl-N-(1-methylcyclopropyl)-3-[(1-methylpyrazol-4-yl)methyl]-2,4-dioxo-quinazoline-6-sulfonamide]: the IC50 in test [1] (setting [4]) was 184 nM; in test [2] (setting [5]) it was 341 nM.
Regarding `Cn1cc(Cn2c(=O)c3cc(S(=O)(=O)NC4(CF)CC4)ccc3n(CC3CCOC3)c2=O)cn1` (centres unmarked) [Example 598, N-[1-(Fluoromethyl)cyclopropyl]-3-[(1-methylpyrazol-4-yl)methyl]-2,4-dioxo-1-(tetrahydrofuran-3-ylmethyl)quinazoline-6-sulfonamide], the half-inhibitory concentration (IC50) is 240 nM in test [1] (setting [6]) and 82 nM in test [2] (read-out: PARG Biochem IC50).
Taken in the same sequence, the figures for `Cn1cc(Cn2c(=O)c3cc(S(=O)(=O)NC4(CF)CC4)ccc3n(Cc3ccncc3)c2=O)cn1` [Example 610, N-[1-(Fluoromethyl)cyclopropyl]-3-[(1-methylpyrazol-4-yl)methyl]-2,4-dioxo-1-(4-pyridylmethyl)quinazoline-6-sulfonamide] were 669 nM and 111 nM.
Taken in the same sequence, the figures for `Cn1cc(Cn2c(=O)c3cc(S(=O)(=O)NC4(CF)CC4)ccc3n(Cc3nncs3)c2=O)cn1` [Example 589, N-[1-(Fluoromethyl)cyclopropyl]-3-[(1-methylpyrazol-4-yl)methyl]-2,4-dioxo-1-(1,3,4-thiadiazol-2-ylmethyl)quinazoline-6-sulfonamide] were 187 nM and 55 nM.
For the molecule `Cn1cc(Cn2c(=O)c3cc(S(=O)(=O)NC4(CF)CC4)ccc3n(CC3CCCO3)c2=O)cn1` (centres unmarked) [Example 619, N-[1-(Fluoromethyl)cyclopropyl]-3-[(1-methylpyrazol-4-yl)methyl]-2,4-dioxo-1-(tetrahydrofuran-2-ylmethyl)quinazoline-6-sulfonamide], the half-inhibitory concentration (IC50) in test [1] (setting [6]) turned out to be 233 nM; in test [2] (read-out: PARG Biochem IC50) it was 190 nM.
Turning to `Cc1cc(Cn2c(=O)c3cc(S(=O)(=O)NC4(C)CC4)ccc3n(C3COC3)c2=O)on1` [Example 339], the results for the IC50 in test [1] (setting [4]) and in test [2] (setting [5]) were 487 nM and 479 nM, respectively.
Consider `CCc1nn(Cc2cc(C)no2)c(=O)c2cc(S(=O)(=O)NC3(C)CC3)ccc12` [Example 353], for which the IC50 in test [1] (setting [4]) came to 574 nM; in test [2] (setting [5]), 408 nM.
Consider `Cc1cc(Cn2c(=O)c3cc(S(=O)(=O)NC4(CF)CC4)ccc3n(CC3CCOC3)c2=O)on1` (centres unmarked) [Example 524, N-[1-(Fluoromethyl)cyclopropyl]-3-[(3-methylisoxazol-5-yl)methyl]-2,4-dioxo-1-(tetrahydrofuran-3-ylmethyl)quinazoline-6-sulfonamide], for which the figures for the half-inhibitory concentration (IC50) in test [1] (setting [6]) and in test [2] (read-out: PARG Biochem IC50) were 310 nM and 125 nM, respectively.
Consider `CON(C)C(=O)c1cc(S(=O)(=O)NC2(C)CC2)cc2c(=O)n(Cc3cnn(C)c3)c(=O)[nH]c12` [Example 451, N-Methoxy-N-methyl-6-[(1-methylcyclopropyl)sulfamoyl]-3-[(1-methylpyrazol-4-yl)methyl]-2,4-dioxo-1H-quinazoline-8-carboxamide], for which the 50% inhibitory concentration (IC50) in test [1] (setting [6]) amounted to 4500 nM; in test [2] (read-out: PARG Biochem IC50), 3850 nM.
Taken in the same sequence, the figures for `Cn1cc(Cn2c(=O)[nH]c3c(Br)cc(S(=O)(=O)NC4(C)CC4)cc3c2=O)cn1` [Example 422, 8-Bromo-N-(1-methylcyclopropyl)-3-[(1-methylpyrazol-4-yl)methyl]-2,4-dioxo-1H-quinazoline-6-sulfonamide] were 611 nM and 512 nM.

Values taken from patent US10239843B2 (CANCER RESEARCH TECHNOLOGY LIMITED, priority 2014, dated 2019).
